Source: patent US10363257B2 (ZENITH EPIGENETICS LTD., priority 2013, dated 2019)

What was measured:
human AML MV-4-11 cells = test: Inhibition of cell proliferation in MV4-11 cells (CellTiter Aqueous One); format: cell-based; details: MV4-11, 72 h
Description: MV4-11 cells: 96-well plates were seeded with 5×10^4 cells per well of exponentially growing human AML MV-4-11 (CRL-9591) cells and immediately treated with two-fold dilutions of test compounds, ranging from 30 μM to 0.2 μM. Triplicate wells were used for each concentration, as well as a media only and three DMSO control wells. The cells and compounds were incubated at 37° C., 5% CO2 for 72 h before adding 20 μL of the CellTiter Aqueous One Solution (Promega) to each well and incubating at 37° C., 5% CO2 for an additional 3-4 h. The absorbance was taken at 490 nm in a spectrophotometer and the percentage of proliferation relative to DMSO-treated cells was calculated after correction from the blank well. IC50 were calculated using the GraphPad Prism software.

[1] = biological target: T1, Brd4 bromodomain 1 (BRD4(1)) (Homo sapiens, UniProt O60885); test: Inhibition of tetra-acetylated histone H4 binding to Brd4 bromodomain 1 (TR-FRET); details: tetra-acetylated histone H4 peptide, first bromodomain of Brd4
T1 construct: made in house; host or cells: E. coli BL21(DE3)
Description: Proteins were cloned and overexpressed with a N-terminal 6× His tag, then purified by nickel affinity followed by size exclusion chromatography. Briefly, E.coli BL21(DE3) cells were transformed with a recombinant expression vector encoding N-terminally Nickel affinity tagged bromodomains from Brd2, Brd3, Brd4. Cell cultures were incubated at 37° C. with shaking to the appropriate density and induced overnight with IPTG. The supernatant of lysed cells was loaded onto Ni-IDA column for purification. Eluted protein was pooled, concentrated and further purified by size exclusion chromatography. Fractions representing monomeric protein were pooled, concentrated, aliquoted, and frozen at −80° C. for use in subsequent experiments.
Binding of tetra-acetylated histone H4 and BET bromodomains was confirmed by a Time Resolved Fluorescence Resonance Energy Transfer (TR-FRET) method. N-terminally His-tagged bromodomains (200 nM) and biotinylated tetra-acetylated histone H4 peptide (25-50 nM, Millipore) were incubated in the presence of Europium Cryptate-labeled streptavidin (Cisbio Cat. #610SAKLB) and XL665-labeled monoclonal anti-His antibody (Cisbio Cat. #61HISXLB) in a white 96 well microtiter plate (Greiner). For inhibition assays, serially diluted test compound was added to these reactions in a 0.2% final concentration of DMSO. Final buffer concentrations were 30 mM HEPES pH 7.4, 30 mM NaCl, 0.3 mM CHAPS, 20 mM phosphate pH 7.0, 320 mM KF, 0.08% BSA). After a 2-h incubation at room temperature, the fluorescence by FRET was measured at 665 and 620 nm by a SynergyH4 plate reader (Biotek). The binding inhibitory activity was shown by a decrease in 665 nm fluorescence relative to 620 nm. IC50 values were determined from a dose response curve.

c-myc = test: Inhibition of c-myc expression (mRNA, real-time PCR) in MV4-11 cells; format: cell-based; details: Human AML MV4-11 cells, 3 h, cMYC mRNA
Description: MV4-11 cells (CRL-9591) were plated at a density of 2.5×10^4 cells per well in 96 well U-bottom plates and treated with increasing concentrations of test compound or DMSO (0.1%) in IMDM media containing 10% FBS and penicillin/streptomycin, and incubated for 3 h at 37° C. Triplicate wells were used for each concentration. Cells were pelleted by centrifugation and harvested using the mRNA Catcher PLUS kit according to manufacturer's instructions. The eluted mRNA isolated was then used in a one-step quantitative real-time PCR reaction, using components of the RNA UltraSense™ One-Step Kit (Life Technologies) together with Applied Biosystems TaqMan® primer-probes for cMYC and Cyclophilin. Real-time PCR plates were run on a VIaTM7 real time PCR machine (Applied Biosystems), data was analyzed, normalizing the Ct values for cMYC to an internal control, prior to determining the fold expression of each sample, relative to the control.

SMILES | IC50 (human AML MV-4-11 cells) [nM] | IC50 [1] [nM] | IC50 (c-myc) [nM]
Cc1noc(C)c1-c1cnc2[nH]c(=O)n(Cc3ccc(Cl)s3)c2c1 [compound 124, 1-((5-chlorothiophen-2-yl)methyl)-6-(3,5-dimethylisoxazol-4-yl)-1H-imidazo[4,5-b]pyridin-2(3H)-one] | 300 to 3000 | ≤ 300 | 300 to 3000
Cc1noc(C)c1-c1cnc2nc(C)n(CC3CCC3)c2c1 [compound 193, 4-(1-(cyclobutylmethyl)-2-methyl-1H-imidazo[4,5-b]pyridin-6-yl)-3,5-dimethylisoxazole] | 300 to 3000 | ≤ 300 | 300 to 3000
Cn1nccc1-c1cnc2[nH]c(=O)n(Cc3ccccc3)c2c1 [compound 171, 1-benzyl-6-(1-methyl-1H-pyrazol-5-yl)-1H-imidazo[4,5-b]pyridin-2(3H)-one] | 300 to 3000 | 300 to 3000 | 300 to 3000
CCNc1nc2c(N)cc(-c3c(C)noc3C)cc2n1C(C)c1ccccc1 (stereo not drawn) [compound 134, 6-(3,5-dimethylisoxazol-4-yl)-N2-ethyl-1-(1-phenylethyl)-1H-benzo[d]imidazole-2,4-diamine] | ≤ 300 | ≤ 300 | ≤ 300
Cc1noc(C)c1-c1cc([N+](=O)[O-])c2nc(C)n([C@@H](C)c3ccccc3)c2c1 [compound 125, (S)-3,5-dimethyl-4-(2-methyl-4-nitro-1-(1-phenylethyl)-1H-benzo[d]imidazol-6-yl)isoxazole] | 300 to 3000 | ≤ 300 | ≤ 300
Cc1noc(C)c1-c1cnc2[nH]c(=O)n([C@@H](C)c3ccccc3)c2c1 [compound 219, (S)-6-(3,5-dimethylisoxazol-4-yl)-1-(1-phenylethyl)-1H-imidazo[4,5-b]pyridin-2(3H)-one] | 300 to 3000 | 300 to 3000 | 300 to 3000
Cc1noc(C)c1-c1cc([N+](=O)[O-])c2[nH]c(=O)n(CC3CC3)c2c1 [compound 145, 1-(cyclopropylmethyl)-6-(3,5-dimethylisoxazol-4-yl)-4-nitro-1H-benzo[d]imidazol-2(3H)-one] | 3000 to 30000 | ≤ 300 | 3000 to 30000
Cc1oncc1-c1cc(N)c2nc(C)n(Cc3ccccc3)c2c1 [compound 201, 1-benzyl-2-methyl-6-(5-methylisoxazol-4-yl)-1H-benzo[d]imidazol-4-amine] | 300 to 3000 | ≤ 300 | 300 to 3000
CCNc1nc2c([N+](=O)[O-])cc(-c3c(C)noc3C)cc2n1CC1CC1 [compound 159, 1-(cyclopropylmethyl)-6-(3,5-dimethylisoxazol-4-yl)-N-ethyl-4-nitro-1H-benzo[d]imidazol-2-amine] | 300 to 3000 | ≤ 300 | ≤ 300
Cc1noc(C)c1-c1cc(N)c2[nH]c(=O)n(Cc3ccc(Cl)cc3)c2c1 [compound 90, 4-amino-1-(4-chlorobenzyl)-6-(3,5-dimethylisoxazol-4-yl)-1H-benzo[d]imidazol-2(3H)-one] | 300 to 3000 | ≤ 300 | ≤ 300
Cc1noc(C)c1-c1cc(O)c2nc(C)n(Cc3ccccc3)c2c1 [compound 173, 1-benzyl-6-(3,5-dimethylisoxazol-4-yl)-2-methyl-1H-benzo[d]imidazol-4-ol] | 300 to 3000 | ≤ 300 | ≤ 300
Cc1noc(C)c1-c1cnc2nc(N3CCOCC3)n(CC3CCC3)c2c1 [compound 210, 4-(1-(cyclobutylmethyl)-6-(3,5-dimethylisoxazol-4-yl)-1H-imidazo[4,5-b]pyridin-2-yl)morpholine] | 300 to 3000 | ≤ 300 | 300 to 3000
Cn1nccc1-c1cnc2nc(NC3CCOCC3)n(Cc3ccccc3)c2c1 [compound 176, 1-benzyl-6-(1-methyl-1H-pyrazol-5-yl)-N-(tetrahydro-2H-pyran-4-yl)-1H-imidazo[4,5-b]pyridin-2-amine] | 300 to 3000 | 300 to 3000 | 300 to 3000
COCCNc1nc2ncc(-c3c(C)noc3C)cc2n1Cc1ccccc1 [compound 167, 1-benzyl-6-(3,5-dimethylisoxazol-4-yl)-N-(2-methoxyethyl)-1H-imidazo[4,5-b]pyridin-2-amine] | ≤ 300 | ≤ 300 | ≤ 300
CCOc1nc2c(NC(C)=O)cc(-c3c(C)noc3C)cc2n1Cc1ccccc1 [compound 120, N-(1-benzyl-6-(3,5-dimethylisoxazol-4-yl)-2-ethoxy-1H-benzo[d]imidazol-4-yl)acetamide] | 300 to 3000 | ≤ 300 | 300 to 3000
Cc1noc(C)c1-c1cc(N2CCC2=O)c2nc(C)n(Cc3ccccc3)c2c1 [compound 183, 1-(1-benzyl-6-(3,5-dimethylisoxazol-4-yl)-2-methyl-1H-benzo[d]imidazol-4-yl)azetidin-2-one] | 3000 to 30000 | ≤ 300 | 300 to 3000
Cc1noc(C)c1-c1cc(N2CC(O)C2)c2nc(C)n(Cc3ccccc3)c2c1 [compound 197, 1-(1-benzyl-6-(3,5-dimethylisoxazol-4-yl)-2-methyl-1H-benzo[d]imidazol-4-yl)azetidin-3-ol] | ≤ 300 | ≤ 300 | ≤ 300
COc1ccc(CNc2nc3ncc(-c4c(C)noc4C)cc3n2Cc2ccccc2)cc1 [compound 205, 1-benzyl-6-(3,5-dimethylisoxazol-4-yl)-N-(4-methoxybenzyl)-1H-imidazo[4,5-b]pyridin-2-amine] | 300 to 3000 | ≤ 300 | 300 to 3000
Cc1noc(C)c1-c1cc(N)c2[nH]c(=O)n([C@H](C)c3ccccc3)c2c1 [compound 179, (R)-4-amino-6-(3,5-dimethylisoxazol-4-yl)-1-(1-phenylethyl)-1H-benzo[d]imidazol-2(3H)-one] | ≤ 300 | ≤ 300 | ≤ 300
COCCNc1nc2c(N)cc(-c3c(C)noc3C)cc2n1Cc1ccccc1 [compound 139, 1-benzyl-6-(3,5-dimethylisoxazol-4-yl)-N2-(2-methoxyethyl)-1H-benzo[d]imidazole-2,4-diamine] | ≤ 300 | ≤ 300 | ≤ 300
Cc1noc(C)c1-c1cnc2nc(N3CCN(C)CC3)n(Cc3ccccc3)c2c1 [compound 165, 4-(1-benzyl-2-(4-methylpiperazin-1-yl)-1H-imidazo[4,5-b]pyridin-6-yl)-3,5-dimethylisoxazole] | 300 to 3000 | ≤ 300 | 300 to 3000
Cn1nccc1-c1cc(N)c2c(c1)n(Cc1ccccc1)c(=O)n2C [compound 199, 4-amino-1-benzyl-3-methyl-6-(1-methyl-1H-pyrazol-5-yl)-1H-benzo[d]imidazol-2(3H)-one] | 300 to 3000 | ≤ 300 | 300 to 3000
Cc1noc(C)c1-c1cnc2nc(C)n(Cc3ccccc3)c2c1C [compound 181, 4-(1-benzyl-2,7-dimethyl-1H-imidazo[4,5-b]pyridin-6-yl)-3,5-dimethylisoxazole] | 300 to 3000 | ≤ 300 | ≤ 300
Cc1noc(C)c1-c1cnc2[nH]c(=O)n(Cc3ccccc3)c2c1C [compound 180, 1-benzyl-6-(3,5-dimethylisoxazol-4-yl)-7-methyl-1H-imidazo[4,5-b]pyridin-2(3H)-one] | 300 to 3000 | ≤ 300 | 300 to 3000
